Source: ChEMBL document CHEMBL1144188, “Obovatol inhibits colorectal cancer growth by inhibiting tumor cell proliferation and inducing apoptosis” (Bioorg Med Chem, 2008)
The source made the active and inactive calls. The calls are words filed in the database; no cut-off is given here.

How the values were obtained:
Mus musculus [1] = assay: Toxicity in SW480 cells xenografted nude mouse assessed as change in body weight 2 mg/kg/day, ip after 21 days; type: organism-based; design: route intraperitoneal; settings: in vivo, 504 h
SW-620 [2] = assay: Antitumor activity in human SW620 cells xenografted nude mouse assessed as decrease in tumor volume at 2 mg/kg, ip after 21 days; type: functional; design: scale not given: the % may be the effect or the level left; settings: route intraperitoneal
SW-620 [3] = assay: Antitumor activity in human SW620 cells xenografted nude mouse assessed as decrease in tumor weight at 2 mg/kg, ip after 21 days; type: functional; design: scale not given: the % may be the effect or the level left; settings: route intraperitoneal
SW-620 [4] = assay: Antitumor activity in human SW620 cells xenografted nude mouse assessed as decrease in tumor volume at 5 mg/kg/day, po after 5 days; type: functional
SW-620 [5] = assay: Antitumor activity in human SW620 cells xenografted nude mouse assessed as decrease in tumor volume at 5 mg/kg/day, po after 23 days; type: functional
SW-620 [6] = assay: Antitumor activity in human SW620 cells xenografted nude mouse assessed as decrease in tumor volume at 5 mg/kg/day, po after 10 days; type: functional
SW-620 [7] = assay: Antitumor activity in human SW620 cells xenografted nude mouse assessed as decrease in tumor volume at 5 mg/kg/day, po after 27 days; type: functional
Mus musculus [8] = assay: Toxicity in SW480 cells xenografted nude mouse assessed as change in body weight 5 mg/kg/day, ip after 21 days; type: organism-based; design: route intraperitoneal; settings: in vivo, 504 h
SW-620 [9] = assay: Antitumor activity in human SW620 cells xenografted nude mouse assessed as decrease in tumor volume at 5 mg/kg/day, po after 16 days; type: functional
DLD-1 = assay: Antiproliferative activity against human DLD1 cells after 48 hrs by MTS assay; type: functional, cell-based
SW-620 [10] = assay: Antitumor activity against human SW620 cells at 50 uM after 72 hrs; type: functional; settings: SW-620, 72 h
MDA-MB-231 [11] = assay: Induction of apoptosis in human MDA-MB-231 cells assessed as ROS production after 24 hrs; type: functional, cell-based
SW-620 [12] = assay: Antitumor activity against human SW620 cells at 30 uM after 24 hrs; type: functional; settings: SW-620, 24 h
SW-620 [13] = assay: Antitumor activity against human SW620 cells at 100 uM after 96 hrs; type: functional; settings: SW-620, 96 h
SW-620 [14] = assay: Antitumor activity against human SW620 cells at 100 uM after 24 hrs; type: functional; settings: SW-620, 24 h
SW-620 [15] = assay: Antitumor activity against human SW620 cells at 100 uM after 72 hrs; type: functional; settings: SW-620, 72 h
MDA-MB-231 [16] = assay: Induction of apoptosis in human MDA-MB-231 cells assessed as morphological changes in presence of N-acetyl-cysteine after 24 hrs; type: functional, cell-based
MDA-MB-231 [17] = assay: Antiproliferative activity against human MDA-MB-231 cells after 48 hrs by MTS assay; type: functional, cell-based
SW-620 [18] = assay: Cell cycle arrest in human SW620 cells assessed as accumulation at G2/M phase at 50 uM after 72 hrs by FACS analysis; type: functional
HT-29 = assay: Antiproliferative activity against human HT-29 cells after 48 hrs by MTS assay; type: functional, cell-based
SW-620 [19] = assay: Antitumor activity against human SW620 cells at 50 uM after 96 hrs; type: functional; settings: SW-620, 96 h
SW-620 [20] = assay: Induction of apoptosis in human SW620 cells assessed as chromosomal DNA fragmentation at […] after 48 hrs by FACS analysis; type: functional, cell-based
SW-620 [21] = assay: Cell cycle arrest in human SW620 cells assessed as accumulation at G1 phase at 50 uM after 72 hrs by FACS analysis; type: functional
SW-620 [22] = assay: Antitumor activity against human SW620 cells at 50 uM after 48 hrs; type: functional; settings: SW-620, 48 h
MCF7 = assay: Antiproliferative activity against human MCF7 cells after 48 hrs by MTS assay; type: functional, cell-based
SW-620 [23] = assay: Antitumor activity against human SW620 cells at 30 uM after 72 hrs; type: functional; settings: SW-620, 72 h
HCT-116 = assay: Antiproliferative activity against human HCT 116 cells after 48 hrs by MTS assay; type: functional, cell-based
DU-145 = assay: Antiproliferative activity against human DU145 cells after 48 hrs by MTS assay; type: functional, cell-based
SW-620 [24] = assay: Induction of apoptosis in human SW620 cells assessed as apoptotic cell form at 50 uM relative to control; type: functional
SW-620 [25] = assay: Antitumor activity against human SW620 cells at 30 uM after 48 hrs; type: functional; settings: SW-620, 48 h
SW-620 [26] = assay: Cell cycle arrest in human SW620 cells assessed as accumulation at subG1 phase at 50 uM after 72 hrs by FACS analysis; type: functional
SW-620 [27] = assay: Induction of apoptosis in human SW620 cells assessed as necrosis relative to control; type: functional
SW-620 [28] = assay: Antitumor activity against human SW620 cells at 30 uM after 96 hrs; type: functional; settings: SW-620, 96 h
K562 = assay: Antiproliferative activity against human K-562 cells after 48 hrs by MTS assay; type: functional, cell-based
SW-620 [29] = assay: Antitumor activity in human SW620 cells xenografted nude mouse assessed as decrease in tumor weight at 5 mg/kg/day, ip after 21 days; type: functional; design: scale not given: the % may be the effect or the level left; settings: route intraperitoneal
SW-620 [30] = assay: Antitumor activity in human SW620 cells xenografted nude mouse assessed as decrease in tumor volume at 5 mg/kg/day, ip after 21 days; type: functional; settings: route intraperitoneal
PC-3 = assay: Antiproliferative activity against human PC-3 cells after 48 hrs by MTS assay; type: functional, cell-based
SW-620 [31] = assay: Effect on apoptosis-mediated morphological changes in human SW620 cells assessed as round cell formation; type: functional, cell-based
SW-620 [32] = assay: Antitumor activity against human SW620 cells at 50 uM after 24 hrs; type: functional; settings: SW-620, 24 h
SW-620 [33] = assay: Antitumor activity against human SW620 cells at 100 uM after 48 hrs; type: functional; settings: SW-620, 48 h
SW-620 [34] = assay: Cell cycle arrest in human SW620 cells assessed as accumulation at S phase at 50 uM after 72 hrs by FACS analysis; type: functional

Molecule COc1cccc2c1C(=O)c1c(O)c3c(c(O)c1C2=O)C[C@@](O)(C(=O)CO)C[C@@H]3O[C@H]1C[C@H](N)[C@H](O)[C@H](C)O1 [DOXORUBICIN] has an Activity (Mus musculus [1]) of 13.1%, an Activity (SW-620 [2]) of 58% and an Activity (SW-620 [3]) of 53.7%.
In the case of C=CCc1ccc(O)c(-c2ccc(O)c(CC=C)c2)c1 [HONOKIOL], the Activity (SW-620 [4]) is reported as 100 mm3, the Activity (SW-620 [5]) is reported as 600 mm3 and the Activity (SW-620 [6]) is reported as 150 mm3. For the same molecule, the Activity (SW-620 [7]) was 900 mm3, the Activity (Mus musculus [8]) was “Non-toxic” and the Activity (SW-620 [9]) was 270 mm3.
In the case of C=CCc1ccc(Oc2cc(CC=C)cc(O)c2O)cc1 [OBOVATOR], the Activity (DLD-1) is reported as “Active”, the inhibition at 50 µM (SW-620 [10]) is reported as 64% and the Activity (MDA-MB-231 [11]) is reported as “inactive”. For the same molecule, the Activity (SW-620 [4]) was 100 mm3, the inhibition at 30 µM (SW-620 [12]) was 7% and the inhibition at 100 µM (SW-620 [13]) was 98%. The inhibition at 100 µM (SW-620 [14]) was 36%, the inhibition at 100 µM (SW-620 [15]) was 97% and the Activity (MDA-MB-231 [16]) was “inactive”. For the same molecule, the Activity (MDA-MB-231 [17]) was “Active”, the Activity (SW-620 [18]) was 16% and the Activity (HT-29) was “Active”. For the same molecule, the Activity (SW-620 [5]) was 400 mm3, the inhibition at 50 µM (SW-620 [19]) was 85% and the Activity (SW-620 [6]) was 130 mm3. The Activity (SW-620 [20]) was “Active”, the Activity (SW-620 [21]) was 53.6% and the inhibition at 50 µM (SW-620 [22]) was 57%. For the same molecule, the Activity (MCF7) was “Active”, the inhibition at 30 µM (SW-620 [23]) was 33% and the Activity (SW-620 [7]) was 750 mm3. The Activity (HCT-116) was “Active”, the Activity (DU-145) was “Active” and the Activity (SW-620 [24]) was less than 50%. The inhibition at 30 µM (SW-620 [25]) was 26%, the Activity (SW-620 [26]) was 23.36% and the Activity (SW-620 [27]) was less than 12%. For the same molecule, the inhibition at 30 µM (SW-620 [28]) was 18%, the Activity (K562) was “Active” and the Activity (SW-620 [29]) was 44.6%. The Activity (SW-620 [30]) was 277 mm3, the Activity (PC-3) was “Active” and the Activity (Mus musculus [8]) was “Non-toxic”. The Activity (SW-620 [31]) was “Active”, the inhibition at 50 µM (SW-620 [32]) was 21% and the inhibition at 100 µM (SW-620 [33]) was 92%. It also gave an Activity (SW-620 [9]) of 150 mm3 and an Activity (SW-620 [34]) of 30.4%.
